Patent US12667581B2, “Therapeutics for treatment of COVID-19 symptoms” (The Texas A&M University System, priority 2020, dated 2026)

Experiments:
Assay type in all cases: in vivo, C57BL/6 mice
[1] = test system: Mouse Model of CALD (ORN06 oropharyngeal aspiration); experiment: Total cells in BALF, ORN06 mouse model of CALD; conditions: i.p. at 24 and 48 hours after ORN06 insult (DANA 10 mg/kg, AMPCA 0.1 mg/kg); BALF at day 3; FIG. 1
[2] = test system: Mouse Model of CALD (ORN06 oropharyngeal aspiration); experiment: BALF cell types by Wright-Giemsa staining, ORN06 mouse model of CALD; conditions: for ORN06-induced increase in the number of monocyte/macrophages in the BALF / counts of specific cell types in the BALF, treated groups versus Control group: i.p. at 24 and 48 hours after ORN06 (DANA 10 mg/kg, AMPCA 0.1 mg/kg); for ORN06-induced increase in the number of monocyte/macrophages in the BALF: day 3, FIG. 2A; for counts of specific cell types in the BALF, treated groups versus Control group: day 3, FIG. 2A-C
Procedure: (§1) To determine if DANA or AMPCA affect CALD symptoms in mice, 5 week old 20 g male and female C57BL/6 mice (#000664; Jackson Laboratories, Bar Harbor, ME) were given an oropharyngeal aspiration of 1 mg/kg (20 μg/mouse) ORN06/LyoVec (LyoVec protects the ssRNA from degradation and facilitates cellular uptake) (InvivoGen, San Diego, CA) in 50 μl phosphate-buffered saline (PBS) to induce symptoms of pulmonary inflammation, or an oropharyngeal aspiration of an equal volume of PBS as a control, following Current protocols in mouse biology 2, 167-175 (2012). At 24 and 48 hours after ORN06 insult, some of ORN06-treated mice were given intraperitoneal injections of 100 μl PBS, or 10 mg/kg of DANA (N-Acetyl-2,3-dehydro-2-deoxyneuraminic acid; #252926-10MG, EMD, Millipore, Burlington, MA) or 0.1 mg/kg of 2-piperidinecarboxylic acid, 4-amino-1-methyl (AMPCA, #A00285-13785-026, Sundia, Shanghai, China) in 100 μl PBS. The DANA was dissolved in water to 2.5 mg/ml, and then diluted in PBS The AMPCA was dissolved directly in PBS. At day 3, mice were euthanized by CO2 inhalation, and BALF was obtained as previously described in Current protocols in mouse biology 2, 167-175 (2012); Proceedings of the National Academy of Sciences of the United States of America 112, 8385-8390 (2015); Public Library of Science ONE 9, e93730 (2014); and Nature Scientific Reports 8; 7 (1):15069 (2017). The experiment was performed in accordance with the recommendations in the Guide for the Care and use of Laboratory Animals of the National Institutes of Health. The Texas A&M University Animal Use and Care Committee approved the protocol.
Total cells in the BALF were then quantified. The BALF cells were processed to prepare cell spots as described previously in Public Library of Science ONE 9, e93730 (2014), Nature Scientific Reports 8; 7 (1):15069 (2017); American Journal of Physiology Lung Cellular and Molecular Physiology, 1; 318 (1):L165-L179 (2020). After air drying for 48 hours at room temperature, some of the prepared BALF cell spots were fixed and treated with Wright-Giemsa stain (#08711, Polysciences, Inc., Warrington, PA) following the manufacturer's instructions. One hundred and fifty cells per mouse were examined and quantified for cell type following the manufacturer's instructions. Imaging of BALF cell spots stained with Wright-Giemsa stain was done with a Nikon Eclipse Ti2 microscope.

[3] = test system: Mouse Model of CALD (ORN06 oropharyngeal aspiration); experiment: BALF cell types by immunochemistry on cell spots, ORN06 mouse model of CALD; conditions: i.p. at 24 and 48 hours after ORN06 (DANA 10 mg/kg, AMPCA 0.1 mg/kg), day 3, FIG. 3
Procedure: as §1
Immunochemistry on BALF cell spots and counts of cells was performed as described previously in Public Library of Science ONE 9, e93730 (2014); Proceedings of the National Academy of Sciences of the United States of America 112, 8385-8390 (2015); Nature Scientific Reports 8; 7 (1):15069 (2017); American Journal of Physiology Lung Cellular and Molecular Physiology, 1; 318 (1)1,165-L179 (2020) using anti-CD3 (100202, clone 17A2, BioLegend, San Diego, CA) to detect T-cells, anti-CD11b (101202, clone M1/70, BioLegend) to detect blood and inflammatory macrophages, anti-CD11c (M100-3, clone 223H7, MBL International, Woburn, MA) to detect alveolar macrophages and dendritic cells, anti-CD45 (103102, clone 30-F11, BioLegend) for total leukocytes, anti-Ly6G (127602, clone 1A8, BioLegend) to detect neutrophils, with isotype-matched irrelevant rat antibodies diluted to 5 μg/ml in PBS containing 2% (w:v) bovine serum albumin (PBS-BSA) (VWR, Radnor, PA). Cells were then incubated in coplin jars containing PBS, with 6 changes of buffer over 30 minutes. […] Using a 40× objective, at least 100 cells from each stained BALF spot were examined and the percent positive cells was recorded.

[4] = test system: Mouse Model of CALD (ORN06 oropharyngeal aspiration); experiment: Clot-like aggregates in BALF cell spots, ORN06 mouse model of CALD; conditions: male mice; irregularly shaped 2-10 μm object staining dark blue with Wright-Giemsa; i.p. at 24 and 48 hours after ORN06 (DANA 10 mg/kg, AMPCA 0.1 mg/kg); day 3; FIG. 4
[5] = test system: Mouse Model of CALD (ORN06 oropharyngeal aspiration); experiment: Alveolar wall thickness in H&E-stained lung cryosections, ORN06 mouse model of CALD; conditions: i.p. at 24 and 48 hours after ORN06 (DANA 10 mg/kg, AMPCA 0.1 mg/kg), day 3, FIGS. 5 and 6
Procedure: (§2) To determine if DANA or AMPCA affect CALD symptoms in mice, 5 week old 20 g male and female C57BL/6 mice (#000664; Jackson Laboratories, Bar Harbor, ME) were given an oropharyngeal aspiration of 1 mg/kg (20 μg/mouse) ORN06/LyoVec (LyoVec protects the ssRNA from degradation and facilitates cellular uptake) (InvivoGen, San Diego, CA) in 50 μl phosphate-buffered saline (PBS) to induce symptoms of pulmonary inflammation, or an oropharyngeal aspiration of an equal volume of PBS as a control, following Current protocols in mouse biology 2, 167-175 (2012). At 24 and 48 hours after ORN06 insult, some of ORN06-treated mice were given intraperitoneal injections of 100 μl PBS, or 10 mg/kg of DANA (N-Acetyl-2,3-dehydro-2-deoxyneuraminic acid; #252926-10MG, EMD, Millipore, Burlington, MA) or 0.1 mg/kg of 2-piperidinecarboxylic acid, 4-amino-1-methyl (AMPCA, #A00285-13785-026, Sundia, Shanghai, China) in 100 μl PBS. […]
(§3) After collecting BALF, the lungs from the mice were harvested and inflated with Surgipath frozen section compound (#3801480, Leica, Buffalo Grove, IL) and preserved at −80° C. […] Image quantification was done using Image J (NIH, Bethesda, MD). […] Using ‘ Straight’ command, the length of the alveolar wall on the image was measured and was recorded with the ‘Measure’ command. 8 measurements of the alveolar wall thickness were recorded for each image. […]

[6] = test system: Mouse Model of CALD (ORN06 oropharyngeal aspiration); experiment: Percent of exudate-containing alveoli in lung cryosections, ORN06 mouse model of CALD; conditions: male mice, i.p. at 24 and 48 hours after ORN06 (DANA 10 mg/kg, AMPCA 0.1 mg/kg), day 3, FIG. 7
Procedure: as §2, §3

[7] = test system: Mouse Model of CALD (ORN06 oropharyngeal aspiration); experiment: Percentage of alveolar airspace area occupied by exudate, ORN06 mouse model of CALD; conditions: lung cryosections; i.p. at 24 and 48 hours after ORN06 (DANA 10 mg/kg, AMPCA 0.1 mg/kg); day 3; FIG. 8
Procedure: To determine if DANA or AMPCA affect CALD symptoms in mice, 5 week old 20 g male and female C57BL/6 mice (#000664; Jackson Laboratories, Bar Harbor, ME) were given an oropharyngeal aspiration of 1 mg/kg (20 μg/mouse) ORN06/LyoVec (LyoVec protects the ssRNA from degradation and facilitates cellular uptake) (InvivoGen, San Diego, CA) in 50 μl phosphate-buffered saline (PBS) to induce symptoms of pulmonary inflammation, or an oropharyngeal aspiration of an equal volume of PBS as a control, following Current protocols in mouse biology 2, 167-175 (2012). […]
as §3
Using the Threshold function and the Measure Tool in NIH ImageJ, the percent area of each 20× objective image of lung cryosections described above containing tissue (not counting pale pink exudates) was measured, and this percentage was subtracted from 100% to obtain the percent area of the image occupied by the alveolar airspace. […]

[8] = test system: Mouse Model of COVID-19-Like Cytokine Storm (ORN06); experiment: Serum cytokine levels (LEGENDplex Mouse Inflammation Panel), ORN06 mouse model; conditions: AMPCA 0.1 mg/kg i.p. at 24 and 48 hours after ORN06, serum at day 3
Procedure: as §1
Serum samples collected at day 3 post control or ORN06 insult were processed following the manufacturer's protocol. (#740150, LEGENDplex Mouse Inflammation Panel (13-plex), Biolegend, San Diego, CA) for simultaneous quantification of mouse cytokines using an Accuri C6 (BD Bioscience, Franklin Lakes, NJ) flow cytometer.

SMILES | ORN06-induced increase in the number of cells in the BALF [1] | number of cells in the BALF, treated groups versus Control group [1] | ORN06-induced increase in the number of monocyte/macrophages in the BALF [2] | counts of specific cell types in the BALF, treated groups versus Control group [2] | ORN06-induced increase in the number of CD11c positive macrophages and/or dendritic cells in the BALF [3] | ORN06-induced increase in the number of CD45-positive leukocytes in the BALF [3] | clot-like aggregates in the BAL cell spots [4] | ORN06-induced alveolar wall thickness increase [5] | percentage of exudate-containing alveoli [6] | percentage of the alveolar airspace area occupied by exudate [7] | ORN06-induced increase in the number of lymphocytes in the BALF ([2]; AMPCA 0.1 mg/kg i.p. at 24 and 48 hours after ORN06, day 3, FIG. 2B) | serum levels of IL-1β ([8]; FIG. 9A) | serum levels of IL-6 ([8]; FIG. 9B) | serum levels of IL-12p70 ([8]; FIG. 9C) | serum levels of IL-23 ([8]; FIG. 9D) | serum levels of IL-27 ([8]; FIG. 9E)
CC(=O)N[C@H]1[C@H]([C@H](O)[C@H](O)CO)OC(C(=O)O)=C[C@@H]1O [DANA, 2-deoxy-2,3-didehydro-N-acetylneuraminic acid] | ameliorated the ORN06-induced increase in the number of cells in the BALF | no significant difference | decreased the ORN06-induced increase in the number of monocyte/macrophages | no significant difference | decreased the ORN06-induced increase in the number of CD11c positive macrophages and/or dendritic cells | decreased the ORN06-induced increase | no clot-like aggregates were observed in the BAL cell spots from 2 of the 3 | significantly reduced | decreased the percentage of exudate-containing alveoli | decreased the percentage of the alveolar airspace area occupied by exudate | – | – | – | – | – | –
CN1CCC(N)CC1C(=O)O (centres unmarked) [AMPCA, 4-amino-1-methyl-2-piperidine carboxylic acid] | ameliorated the ORN06-induced increase in the number of cells in the BALF | no significant difference | decreased the ORN06-induced increase in the number of monocyte/macrophages | no significant difference | decreased the ORN06-induced increase in the number of CD11c positive macrophages and/or dendritic cells | decreased the ORN06-induced increase | No clot-like aggregates were observed | significantly reduced | decreased the percentage of exudate-containing alveoli | decreased the percentage of the alveolar airspace area occupied by exudate | decreased the ORN06-induced increase in the number of monocyte/macrophages and lymphocytes | decreased the serum levels of both cytokines | decreased the serum levels of both cytokines | decreased the serum levels of IL-12p70 | decreased the serum levels | decreased the serum levels
